Literature values as cited in patent US6703001B1, “Cosmetic and dermatological light-protective formulations containing triazine derivatives one or several esters of branched-chain carboxylic acids and branched-chain alcohols” (Beiersdorf AG, priority 1998, dated 2004).

CCCCC(CC)COC(=O)c1ccc(Nc2nc(Nc3ccc(C(=O)OCC(CC)CCCC)cc3)nc(Nc3ccc(C(=O)OCC(CC)CCCC)cc3)n2)cc1 (stereo not drawn) [UVINUL7 T 150, tris(2-ethylhexyl) 4,4′,4″-(1,3,5-triazine-2,4,6-triyltriimino)trisbenzoate]
corresponding dissolved, and therefore active, UV filter substance (corresponds to the about 15% by weight solubility in known solvents): 1-1.5 % by weight | maximum amount of the filter that known solvents can dissolve (known solvents for this UVB filter (lipids)): about 15 % by weight | solubility in lipids (in words) (lipids): poor solubility in lipids
